According to US20240342158A1, “METHOD OF TREATING AND/OR PREVENTING TYPE 1 DIABETES WITH CEPHARANTHINE” (ALBERT EINSTEIN COLLEGE OF MEDICINE, priority 2021, published 2024):

Assays:
[1] = system: splenocytes and draining lymph node cells of immunized NOD-DR3 mice; assay: Interferon gamma response of lymphocytes of co-immunized NOD-DR3 mice to the peptides; type: cell-based, humanized NOD-DR3 mice; details: lymphocytes of mice co-immunized with Tg.1571, GAD.492 and TPO.758, stimulated 48 hours
Source text: Induction of T-Cell Response to Islet and Thyroid Autoantigens in Humanized NOD-DR3 Mice as a Model of APS3v: Previously we have identified 4 thyroid and islet peptides that triggered T-cell responses inNOD-DR3mice—Tg.1571,GAD.492, TPO.338 and TPO.758 (12). However, only 3 of these peptides (Tg.1571, GAD.492, and TPO.758) elicited significant B-cell (antibody) responses. Therefore, we concluded that these 3 peptides are the major T-cell epitopes in APS3v and used them to induce a model of APS3v in humanized NOD-DR3mice. To induce the APS3v model, 22 female NOD-DR3 mice 4-6 weeks old were co-immunized subcutaneously with these three peptides: Tg.1571, GAD.492 and TPO.758 (100 μg each peptide), in Complete Freund's Adjuvant (CFA, Sigma-Aldrich). Mice were immunized with peptides on day 0 and boosted on day 7, then sacrificed on day 21. As negative control, humanized NOD-DR3 littermates were immunized with PBS emulsified in CFA.
Cytokine Assays: Milliplex mouse cytokines/chemokine magnetic panel (Catalog no. MCYTOMAG-70K, EMD Millipore Corporation, Billerica, MA) was used to assay the cytokines, as described in the art. Briefly, splenocytes were plated at 2×10^6 cells per well in 500 μl of medium (RPMI/10% FBS). Supernatants from stimulated lymphocytes were collected 48 h after stimulation with peptides and stored in −80° C. until the assay was performed. The 96-well plate supplied in the kit was washed with the wash buffer supplied and the plate was shaken for 10 min at room temperature. Standards and quality controls were added, followed by the samples. The pre-mixed beads (Interferon gamma and IL-2) were sonicated, vortexed and added to the wells. After shaking the plate overnight at 4° C., the plate was washed twice with wash buffer. Detection antibodies were added for 1 h at room temperature, and Streptavidin-Phycoerythrin was added for 30 min at room temperature. The plate was washed twice and sheath fluid was added to resuspend the beads for 5 min before reading in Luminex 200 with xPONENT software (Luminex, Austin, Texas). […]

[2] = molecular target: recombinant APS3v-HLA-DR3 (Homo sapiens, UniProt P01903+P01911, A100K/A102G/A103R/F55Y/I96L/K41T/P40S/Q125H/Q178H/Q39Y/R42S/S66N/T106N/W38E/Y61H); assay: ELISA inhibition assay of biotinylated peptide binding to recombinant APS3v-HLA-DR3; details: ELISA inhibition assay, final concentration 0.4 mM
Procedure: An in vitro binding assay was performed. […] On the day before the immunoassay was performed, a 96-well DELFIA yellow plate (PerkinElmer Life Science) was coated overnight with 20 μg/ml of L243 antibody [Hybridoma was purchased from ATCC, catalogue number HB-55, and IgG was purified by QED Bioscience (San Diego, CA)] in bicarbonate buffer, pH 9.6 (Sigma-Aldrich). L243 is a monoclonal antibody that specifically recognizes the DRa chain of HLA-DR when it is properly folded and complexed with the b chain. The plate was then washed with DELFIA wash buffer (diluted 1:25 from DELFIA wash concentrate, PerkinElmer) to wash off the excess L243 antibody. Blocking was performed using 2.5% BSA in PBS at room temperature for 1 h. After washing 4 times, 100 μl of the pre-incubated mix (containing recombinant APS3v-HLA-DR3 protein, APO, and small molecules) were added onto the plate and shaken at slow speed for 2 h at room temperature. After washing 4 times, DELFIA Europium-labeled streptavidin (PerkinElmer) diluted in DELFIA assay buffer (PerkinElmer) was added for 30 min and shaken at slow speed at room temperature. After washing for 6 times, DELFIA Enhancement Solution was added for 1 h until the optimal signal was reached. Time-resolved fluorescence was measured using the BMG reader (BMG Labtech, Cary, NC). A virtual screen identified 100 small molecules that were predicted to block the unique APS3v-HLA-DR3 pocket. To produce a manageable selection of compounds for validation we clustered the 100 compounds by their simplified molecular input line entry system (SMILES) similarity into 20 clusters. Of the 20 clusters we selected the top scoring members in each cluster. We have enhanced this list to include a total of 11 compounds that blocked APS3v-HLA-DR3, the key HLA-DR3 pocket that triggers APS3v. We tested the selected 11 small molecules identified by the virtual screen in our in vitro ELISA, to test whether the 11 small molecules can block APO peptide (the strongest known peptide binder to HLA-DR3) binding to recombinant APS3v-HLA-DR3. Of the 4 validated small molecules we selected S53 for further testing because it is the only one that has been used in humans before. […] ELISA was performed as previously described.

[3] = system: splenocytes and draining lymph node cells of immunized NOD-DR3 mice; assay: Small molecule inhibition of cytokine production ex vivo (Milliplex); type: cell-based, humanized NOD-DR3 mice; design: GAD.492-induced IFN-g production: unit not given here; details: 1 μM small molecule + GAD.492 20 μg/ml, 48 h; GAD.492 alone 56.3
Procedure: Cytokine Assays: Milliplex mouse cytokines/chemokine magnetic panel (Catalog no. MCYTOMAG-70K, EMD Millipore Corporation, Billerica, MA) was used to assay the cytokines, as described in the art. Briefly, splenocytes were plated at 2×10^6 cells per well in 500 μl of medium (RPMI/10% FBS). Supernatants from stimulated lymphocytes were collected 48 h after stimulation with peptides and stored in −80° C. until the assay was performed. The 96-well plate supplied in the kit was washed with the wash buffer supplied and the plate was shaken for 10 min at room temperature. Standards and quality controls were added, followed by the samples. The pre-mixed beads (Interferon gamma and IL-2) were sonicated, vortexed and added to the wells. After shaking the plate overnight at 4° C., the plate was washed twice with wash buffer. Detection antibodies were added for 1 h at room temperature, and Streptavidin-Phycoerythrin was added for 30 min at room temperature. The plate was washed twice and sheath fluid was added to resuspend the beads for 5 min before reading in Luminex 200 with xPONENT software (Luminex, Austin, Texas).
Small Molecule Inhibition of Cytokine Production Ex Vivo: Eight NOD-DR3 mice were immunized with the three thyroidal/islet peptides. Upon sacrifice, splenocytes were incubated with 1 μM of small molecules (S5, S9, S15, S53) together with TPO.758 (20 μg/ml), GAD.492 (20 μg/ml) or Tg.1571 (20 μg/ml) respectively to assess the blockade of these peptides' presentation by the tested small molecules. Supernatants from stimulated lymphocytes were collected 48 h after stimulation with peptides and small molecules, and stored in −80° C. until the cytokine assay was performed. […]

Sequence of recombinant APS3v-HLA-DR3 (P01911 30-227 W38E/Q39Y/P40S/K41T/R42S/F55Y/Y61H/S66N/I96L/A100K/A102G/A103R/T106N/Q125H/Q178H): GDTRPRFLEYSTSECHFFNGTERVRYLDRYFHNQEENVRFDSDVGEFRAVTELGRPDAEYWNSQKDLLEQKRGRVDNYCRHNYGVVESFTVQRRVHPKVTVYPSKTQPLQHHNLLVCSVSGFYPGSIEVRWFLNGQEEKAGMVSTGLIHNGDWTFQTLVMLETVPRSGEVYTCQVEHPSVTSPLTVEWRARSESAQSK
Sequence of recombinant APS3v-HLA-DR3 (P01903 26-216): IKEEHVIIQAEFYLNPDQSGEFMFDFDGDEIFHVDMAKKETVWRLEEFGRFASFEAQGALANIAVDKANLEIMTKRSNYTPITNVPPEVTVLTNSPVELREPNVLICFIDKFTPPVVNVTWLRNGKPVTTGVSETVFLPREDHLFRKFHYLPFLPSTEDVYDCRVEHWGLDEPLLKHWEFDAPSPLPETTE

Compound | interferon gamma (IFN-g) response to the peptide [1] [pg/mL] | inhibition of binding of the 3 peptides (TPO.758, GAD.492, Tg.1571) to the HLA-DR3 pocket [2] | GAD.492-induced IFN-g production [3]
GAD.492: glutamic acid decarboxylase 65 (GAD65) peptide REGYEMVFDGKPQHTNVCF (SEQ ID NO: 2) (GAD.492) | 99.6 |  | 
TPO.758: thyroid peroxidase (TPO) peptide ESGRRVLVYSCRHGYELQG (SEQ ID NO: 3) (TPO.758) | 717 |  | 
COc1ccc(Nc2nnc(-c3ccc(C)c(S(N)(=O)=O)c3)c3ccccc23)cc1C(N)=O [S15] |  | significant inhibition of binding for all 3 peptides | 30.1
Cc1ccc(-c2nnc(Nc3ccc(C(=O)Nc4ccccc4)cc3)c3ccccc23)cc1S(N)(=O)=O [S5] |  | significant inhibition of binding for all 3 peptides | 
Tg.1571: thyroglobulin (Tg) peptide EKVPESKVIFDANAPVAVRSKVPDSEF (SEQ ID NO: 1) (Tg.1571) | 24.2 |  | 
Cc1ccccc1Nc1nnc(-c2ccc(C)c(S(N)(=O)=O)c2)c2ccccc12 [S9] |  | only blocked GAD.492 and Tg.1571 binding | 
